# Experimental data from patent publication US9676757B2, “Heterocyclic compounds as NaV channel inhibitors and uses thereof” (Merck Patent GmbH, priority 2014, dated 2017).
# Like-named read-outs stand apart in the source and are kept apart here.
# Target: Nav1.6 (Homo sapiens, UniProt Q9UQD0)
# Assay: Nav two-pulse protocol, IonWorks Quattro electrophysiology
# Assay type: cell-based
# Settings: -120 mV to 0 mV, compound incubated 300 s
# Method: Compound Plate Preparation
# Supplied compounds were sent as Assay Ready Plates, with 2 μL per well of compound in DMSO at 300× the final assay concentrations as described above and in the project proposal. All assay plates are stored at in a −80° C. freezer.
# On the day of the assay, 198 μL of external solution was added to the appropriate assay plate and mixed thoroughly. This provided a 1:100 dilution. A further 1:3 dilution occurred upon addition to the cells in the IonWorks, giving a 1:300 dilution in total.
# On each assay plate, at least 8 wells were reserved for vehicle control (0.3% DMSO) and at least 8 wells for each positive control specific to the cell line tested. The positive controls were tested in an 8-point dose response with 3-fold dilutions to determine an IC50 value for each run. The positive control compounds are outlined below.
# Ion Channel Positive Control & Concentrations
# Nav1.6/1.2 Lidocaine: 8, 3-fold dilutions starting at 100 μM
# Electrophysiological Recording Solutions
# The solutions for recording currents were are follows:
# Amphotericin B was used to obtain electrical access to the cell interior at a final concentration of 200 μg/ml in internal recording solution.
# Experimental Protocols & Data Analysis
# Nav currents were evoked by stepping from a holding potential of −120 mV to 0 mV for 2.5 s (pulse 1), followed by a 5 ms inter-pulse interval, and stepping from a holding potential of −120 mV to 0 mV for 20 ms (pulse 2). The voltage protocol was applied (Pre), compounds added, incubated for 300 seconds, and the voltage protocol was applied a final time (Post) on the IonWorks Quattro.
# The parameters measured were the maximum inward current evoked on stepping to 0 mV from the 1st and 2nd pulse. All data were filtered for seal quality, seal drop, and current amplitude. The peak current amplitude (Peak) was calculated before (Pre) and after (Post) compound addition to the amount of block was assessed by dividing the Post-compound current amplitude by the Pre-compound current amplitude. These procedures were implemented for the 1st and 2nd pulse.
# Chain of Nav1.6 (Q9UQD0 whole entry): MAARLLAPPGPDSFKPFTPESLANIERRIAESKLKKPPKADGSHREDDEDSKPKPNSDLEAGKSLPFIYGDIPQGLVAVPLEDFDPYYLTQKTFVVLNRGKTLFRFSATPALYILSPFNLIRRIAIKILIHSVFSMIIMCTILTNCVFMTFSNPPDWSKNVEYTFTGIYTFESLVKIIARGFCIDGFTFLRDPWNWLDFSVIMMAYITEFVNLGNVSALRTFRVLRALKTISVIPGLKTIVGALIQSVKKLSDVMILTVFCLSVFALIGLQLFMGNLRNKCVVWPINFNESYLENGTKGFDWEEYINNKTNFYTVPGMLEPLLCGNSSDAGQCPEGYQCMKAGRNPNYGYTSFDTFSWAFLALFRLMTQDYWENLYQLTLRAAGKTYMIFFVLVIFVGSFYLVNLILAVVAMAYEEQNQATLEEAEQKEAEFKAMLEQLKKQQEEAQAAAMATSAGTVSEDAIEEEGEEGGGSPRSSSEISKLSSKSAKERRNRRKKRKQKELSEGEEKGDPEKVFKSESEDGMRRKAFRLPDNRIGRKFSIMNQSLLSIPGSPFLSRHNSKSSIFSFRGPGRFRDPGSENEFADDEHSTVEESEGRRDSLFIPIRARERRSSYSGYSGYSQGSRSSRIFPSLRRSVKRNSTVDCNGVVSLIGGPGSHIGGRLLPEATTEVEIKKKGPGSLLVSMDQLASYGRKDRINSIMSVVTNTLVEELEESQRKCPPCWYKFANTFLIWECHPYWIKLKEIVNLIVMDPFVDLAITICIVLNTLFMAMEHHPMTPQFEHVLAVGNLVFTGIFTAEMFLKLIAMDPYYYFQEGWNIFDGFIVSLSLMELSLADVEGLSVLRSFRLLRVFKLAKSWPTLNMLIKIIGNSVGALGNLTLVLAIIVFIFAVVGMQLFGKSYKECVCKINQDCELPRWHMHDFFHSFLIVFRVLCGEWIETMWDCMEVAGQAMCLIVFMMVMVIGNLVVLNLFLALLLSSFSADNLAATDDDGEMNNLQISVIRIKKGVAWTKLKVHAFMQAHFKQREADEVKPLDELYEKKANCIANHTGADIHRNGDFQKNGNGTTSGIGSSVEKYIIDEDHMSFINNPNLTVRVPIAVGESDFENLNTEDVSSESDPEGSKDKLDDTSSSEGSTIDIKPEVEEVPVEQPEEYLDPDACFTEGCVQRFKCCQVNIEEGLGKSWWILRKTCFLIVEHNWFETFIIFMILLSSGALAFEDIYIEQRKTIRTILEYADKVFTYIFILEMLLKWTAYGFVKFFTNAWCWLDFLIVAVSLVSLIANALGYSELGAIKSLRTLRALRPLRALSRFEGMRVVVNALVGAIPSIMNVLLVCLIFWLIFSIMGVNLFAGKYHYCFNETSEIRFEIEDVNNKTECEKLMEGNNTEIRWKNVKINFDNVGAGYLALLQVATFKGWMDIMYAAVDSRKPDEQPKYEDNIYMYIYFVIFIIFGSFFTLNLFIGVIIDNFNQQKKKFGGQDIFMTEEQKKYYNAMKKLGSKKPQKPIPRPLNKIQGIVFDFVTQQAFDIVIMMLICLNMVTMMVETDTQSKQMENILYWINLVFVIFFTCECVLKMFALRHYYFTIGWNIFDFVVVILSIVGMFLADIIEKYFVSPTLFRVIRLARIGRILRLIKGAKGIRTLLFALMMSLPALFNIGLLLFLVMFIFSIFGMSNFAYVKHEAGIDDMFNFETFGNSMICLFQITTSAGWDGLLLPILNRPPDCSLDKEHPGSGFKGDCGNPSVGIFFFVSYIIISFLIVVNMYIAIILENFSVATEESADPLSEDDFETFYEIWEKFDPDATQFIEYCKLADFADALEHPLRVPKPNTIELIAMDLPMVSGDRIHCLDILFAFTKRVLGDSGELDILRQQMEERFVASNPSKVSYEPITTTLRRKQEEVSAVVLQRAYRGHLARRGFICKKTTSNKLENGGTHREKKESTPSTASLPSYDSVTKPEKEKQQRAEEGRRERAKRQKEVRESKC
SMILES,IC50 (read-out: Nav1.6 Tonic) [µM],IC50 (read-out: Nav1.6 inac) [µM]
"O=C(NCc1cccc(C(F)(F)F)c1)C1CCN(Cc2cccc(Oc3ccccc3)c2)C1 (centres unmarked) [Compound 70, 1-(3-Phenoxy-benzyl)-pyrrolidine-3-carboxylic acid 3-trifluoromethyl-benzylamide]",10 to 20,1 to 5
"O=C(NCc1ccc(C(F)(F)F)cc1)C1CCN(Cc2cccc(Oc3ccccc3)c2)C1 (centres unmarked) [Compound 71, 1-(3-Phenoxy-benzyl)-pyrrolidine-3-carboxylic acid 4-trifluoromethyl-benzylamide]",10 to 20,1 to 5
"O=C(NCc1nc(-c2ccccc2)cs1)C1CCN(Cc2cccc(Oc3ccccc3)c2)C1 (centres unmarked) [Compound 85, 1-(3-Phenoxy-benzyl)-pyrrolidine-3-carboxylic acid (4-phenyl-thiaz-1-2-ylmethyl)-amide]",> 20,1 to 5
"Cc1cnc(CNC(=O)C2CCN(Cc3cccc(OCC(F)(F)F)c3)C2)cn1 (centres unmarked) [Compound 89, 1-[3-(2,2,2-Trifluoro-ethoxy)-benzyl]-pyrrolidine-3-carboxylic acid (5-methyl-pyrazin-2-ylmethyl)-amide]",> 20,1 to 5
"Cc1cccnc1CNC(=O)C1CCN(Cc2cccc(OCC(F)(F)F)c2)C1 (centres unmarked) [Compound 90, 1-[3-(2,2,2-Trifluoro-ethoxy)-benzyl]-pyrrolidine-3-carboxylic acid (3-methyl-pyridin-2-ylmethyl)-amide]",> 20,1 to 5
"O=C(NCc1cccc(C(F)(F)F)n1)C1CCN(Cc2cccc(OCC(F)(F)F)c2)C1 (centres unmarked) [Compound 92, 1-[3-(2,2,2-Trifluoro-ethoxy)-benzyl]-pyrrolidine-3-carboxylic acid (6-trifluoromethyl-pyridin-2-ylmethyl)-amide]",> 20,1 to 5
"O=C(NCc1ccccn1)C1(O)CCN(Cc2cccc(Oc3ccccc3)c2)C1 (centres unmarked) [Compound 93, 3-hydroxy-1-(phenyloxy-benzyl)-pyrrolidine-3-carboxylic acid (pyridin-2-ylmethyl)-amide]",> 20,1 to 5
"O=C(NCc1ccccn1)C1(O)CCN(Cc2cccc(Oc3ccccc3)c2)C1=O (centres unmarked) [Compound 94, 3-Hydroxy-2-oxo-1-(3-phenoxy-benzyl)-pyrrolidine-3-carboxylic acid (pyridin-2-ylmethyl)-amide]",> 20,1 to 5
"O=C(NCc1ccccn1)C1(Cl)CCN(Cc2cccc(Oc3ccccc3)c2)C1=O (centres unmarked) [Compound 95, 3-Chloro-2-oxo-1-(3-phenoxy-benzyl)-pyrrolidine-3-carboxylic acid (pyridin-2-ylmethyl)-amide]",> 20,> 5
"O=C(NCc1ccc(OC(F)F)cc1)C1CCN(Cc2cccc(Oc3ccccc3)c2)C1 (centres unmarked) [Compound 96, 1-(3-Phenoxy-benzyl)-pyrrolidine-3-carboxylic acid 4-difluoromethoxy-benzylamide]",> 20,> 5
"Cc1ccc(CNC(=O)C2CCN(Cc3cccc(OCC(F)(F)F)c3)C2)nc1 (centres unmarked) [Compound 97, 1-[3-(2,2,2-Trifluoro-ethoxy)-benzyl]-pyrrolidine-3-carboxylic acid (5-methyl-pyridin-2-ylmethyl)-amide]",> 20,> 5
"O=C(NCc1ncccc1F)C1CCN(Cc2cccc(OCC(F)(F)F)c2)C1 (centres unmarked) [Compound 98, 1-[3-(2,2,2-Trifluoro-ethoxy)-benzyl]-pyrrolidine-3-carboxylic acid (3-fluoro-pyridin-2-ylmethyl)-amide]",> 20,> 5
"CC1(C(=O)NCc2ccccn2)CCN(Cc2coc(-c3ccccc3)n2)C1 (centres unmarked) [Compound 99, 3-Methyl-1-(2-phenyl-oxazol-4-ylmethyl)-pyrrolidine-3-carboxylic acid (pyridin-2-ylmethyl)-amide]",> 20,1 to 5

# Further lines, results first:
IC50 (read-out: Nav1.6 Tonic) [µM],IC50 (read-out: Nav1.6 inac) [µM],SMILES
10 to 20,1 to 5,"O=C(NCc1ccc(Cl)cc1)C1CCN(Cc2cccc(Oc3ccccc3)c2)C1 (centres unmarked) [Compound 68, 1-(3-Phenoxy-benzyl)-pyrrolidine-3-carboxylic acid 4-chloro-benzylamide]"
> 20,< 1,"O=C(NCc1cccc(Cl)c1)C1CCN(Cc2cccc(Oc3ccccc3)c2)C1 (centres unmarked) [Compound 69, 1-(3-Phenoxy-benzyl)-pyrrolidine-3-carboxylic acid 3-chloro-benzylamide]"
10 to 20,1 to 5,"O=C(NCc1ccccc1C(F)(F)F)C1CCN(Cc2cccc(Oc3ccccc3)c2)C1 (centres unmarked) [Compound 72, 1-(3-Phenoxy-benzyl)-pyrrolidine-3-carboxylic acid 2-trifluoromethyl-benzylamide]"
10 to 20,1 to 5,"O=C(NCc1ccccc1F)C1CCN(Cc2cccc(Oc3ccccc3)c2)C1 (centres unmarked) [Compound 73, 1-(3-Phenoxy-benzyl)-pyrrolidine-3-carboxylic acid 2-fluoro-benzylamide]"
10 to 20,1 to 5,"O=C(NCc1cccc(F)c1)C1CCN(Cc2cccc(Oc3ccccc3)c2)C1 (centres unmarked) [Compound 74, 1-(3-Phenoxy-benzyl)-pyrrolidine-3-carboxylic acid 3-fluoro-benzylamide]"
10 to 20,1 to 5,"O=C(NCc1ccc(F)cc1)C1CCN(Cc2cccc(Oc3ccccc3)c2)C1 (centres unmarked) [Compound 75, 1-(3-Phenoxy-benzyl)-pyrrolidine-3-carboxylic acid 4-fluoro-benzylamide]"
10 to 20,< 1,"O=C(NCc1cc(F)cc(F)c1)C1CCN(Cc2cccc(Oc3ccccc3)c2)C1 (centres unmarked) [Compound 76, 1-(3-Phenoxy-benzyl)-pyrrolidine-3-carboxylic acid 3,5-difluoro-benzylamide]"
10 to 20,< 1,"O=C(NCc1cc(F)ccc1F)C1CCN(Cc2cccc(Oc3ccccc3)c2)C1 (centres unmarked) [Compound 77, 1-(3-Phenoxy-benzyl)-pyrrolidine-3-carboxylic acid 2,5-difluoro-benzylamide]"
10 to 20,1 to 5,"O=C(NCc1ccc(F)cc1F)C1CCN(Cc2cccc(Oc3ccccc3)c2)C1 (centres unmarked) [Compound 78, 1-(3-Phenoxy-benzyl)-pyrrolidine-3-carboxylic acid 2,4-difluoro-benzylamide]"
10 to 20,< 1,"O=C(NCc1c(F)cccc1F)C1CCN(Cc2cccc(Oc3ccccc3)c2)C1 (centres unmarked) [Compound 79, 1-(3-Phenoxy-benzyl)-pyrrolidine-3-carboxylic acid 2,6-difluoro-benzylamide]"
10 to 20,< 1,"O=C(NCc1ccc(F)c(F)c1)C1CCN(Cc2cccc(Oc3ccccc3)c2)C1 (centres unmarked) [Compound 80, 1-(3-Phenoxy-benzyl)-pyrrolidine-3-carboxylic acid 3,4-difluoro-benzylamide]"
10 to 20,< 1,"CC(C)(C)c1ccc(CNC(=O)C2CCN(Cc3cccc(Oc4ccccc4)c3)C2)cc1 (centres unmarked) [Compound 81, 1-(3-Phenoxy-benzyl)-pyrrolidine-3-carboxylic acid 4-tert-butyl-benzylamide]"
10 to 20,< 1,"Cc1cccc(CNC(=O)C2CCN(Cc3cccc(Oc4ccccc4)c3)C2)c1 (centres unmarked) [Compound 82, 1-(3-Phenoxy-benzyl)-pyrrolidine-3-carboxylic acid 3-methyl-benzylamide]"
> 20,1 to 5,"Cc1ccc(CNC(=O)C2CCN(Cc3cccc(Oc4ccccc4)c3)C2)cc1 (centres unmarked) [Compound 83, 1-(3-Phenoxy-benzyl)-pyrrolidine-3-carboxylic acid 4-methyl-benzylamide]"
10 to 20,< 1,"Cc1ccc(F)cc1CNC(=O)C1CCN(Cc2cccc(Oc3ccccc3)c2)C1 (centres unmarked) [Compound 84, 1-(3-Phenoxy-benzyl)-pyrrolidine-3-carboxylic acid 5-fluoro-2-methyl-benzylamide]"
,> 5,"O=C(NCCc1c[nH]cn1)C1CCN(Cc2cccc(Oc3ccccc3)c2)C1 (centres unmarked) [Compound 86, 1-(3-Phenoxy-benzyl)-pyrrolidine-3-carboxylic acid [2-(1H-imidazol-4-yl)-ethyl]-amide]"
< 10,< 1,"O=C(NCC1CCCO1)C1CCN(Cc2cccc(Oc3ccccc3)c2)C1 (centres unmarked) [Compound 87, 1-(3-Phenoxy-benzyl)-pyrrolidine-3-carboxylic acid (tetrahydro-furan-2-ylmethyl)-amide]"
> 20,< 1,"O=C(NCc1cccs1)C1CCN(Cc2cccc(Oc3ccccc3)c2)C1 (centres unmarked) [Compound 88, 1-(3-Phenoxy-benzyl)-pyrrolidine-3-carboxylic acid (thiophen-2-ylmethyl)-amide]"
> 20,> 5,"Cc1ccc(CNC(=O)C2CCN(Cc3cccc(Oc4ccccc4)c3)C2)o1 (centres unmarked) [Compound 91, 1-(3-Phenoxy-benzyl)-pyrrolidine-3-carboxylic acid (5-methyl-furan-2-ylmethyl)-amide]"
10 to 20,1 to 5,"CCNC(=O)C1CN(Cc2cccc(Oc3ccccc3)c2)CCO1 (centres unmarked) [Compound 100, 4-(3-Phenoxy-benzyl)-morpholine-2-carboxylic acid ethylamide]"
